Measurements from patent US20210170033A1, “NOVEL CONJUGATES OF A PHARMACEUTICAL AGENT AND A MOIETY CAPABLE OF BINDING TO A GLUCOSE SENSING PROTEIN” (SANOFI, priority 2017, published 2021).
Read-outs that look alike come from different tables or passages of the source.

Legend:
[1] = system: A2780 cells; assay: Deoxy-glucose uptake assay in A2780 cells (14C 2-deoxy-D-glucose transport); assay type: cell-based; conditions: Homo sapiens, 20 min; inhibition of 14C 2-deoxy-D-glucose transport into A2780 cells; 20 min compound incubation; read-out: IC50
How it was run: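 Radiolabelled 2-deoxy-D-glucose transport over 20 min was scintillation-counted in A2780 cells, grown 48 h, after 20 min compound exposure in KRB. Untreated cells gave the 100% reference, with Cytochalasin B defining background. IC50 values were regressed from triplicate means across 7 or 14 concentrations.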

[2] = system: A2780 Human Carcinoma Cells; assay: Glucose displacement assay (ATP measurement, CellTiter-Glo); assay type: cell-based; conditions: ATP measurement in A2780 cells, 0.5 μM rotenone
Description: 2. Glucose Displacement Assay (ATP Measurement)
30,000 A2780 Human Carcinoma Cells are seeded per well in a Greiner 96-well plate. Cells are expanded and cultured in RPMI 1640 medium+GlutaMAX® with 10% FCS and 11 mM glucose, at 37° C. with 5% CO2. After 44 h, culture media is changed and washed once with PBS to starvation media consisting of RPMI 1640 medium with 1% FCS without glucose for 2 hours. Cells are then washed with KRB buffer, followed by incubation for 20 min at 37° C. of the treatment mix consisting of 60 μL KRB buffer/well and 10 μL of compound or DMSO 10×. 10 μl of rotenone is added to the mix to a final concentration of 0.5 μM. Cell plates are left for 2 min at room temperature. 20 μL of different glucose concentrations are added to the mix—typically 0.1 to 10 mM range—.
Cells are incubated for another 15 min at 37° C., before measuring ATP with the CellTiter-Glo® Assay, under manufacturer's guidance, but without the equilibration step at room temperature for 30 min. In brief, 100 μl of Cell-Titer-Glo® Reagent is added to the wells containing already 100 μl of the previous reaction mix. Plates are mixed for 2 min at 800 rpm, followed by incubation at room temperature for 10 min to stabilize the luminescent signal. Luminescence is then recorded with the Tekan Ultra Evolution reader.

[3] = 1 mM glucose, read-out: IC50 [μM] at 1 mM glucose
[4] = 10 mM glucose, read-out: IC50 [μM] at 10 mM glucose

Compound	IC50 [1]	IC50 [2, 3]	IC50 [2, 4]
C#CCCCn1cnc(COc2c(Cl)cc(C(=O)O[C@H]3[C@@H](OC)O[C@H](CO)[C@@H](O)[C@@H]3O)cc2OC)c1 [Example 208]	12700 nM	21.4 µM	> 100 µM
COc1cc(OCc2ccccc2)c(Cl)cc1C(=O)N[C@H]1[C@@H](OC)O[C@H](CO)[C@@H](O)[C@@H]1O [Example 232]	7300 nM	5.6 µM	> 33 µM
COc1cc(OCc2ccccc2)c(Cl)cc1C(=O)O[C@H]1[C@@H](OC)O[C@H](CO)[C@@H](O)[C@@H]1O [Example 233]	1100 nM	1.67 µM	21.1 µM
COC(=O)[C@@H](N)CCC(=O)NCc1cccc(COc2c(Cl)cc(C(=O)O[C@H]3[C@@H](OC)O[C@H](CO)[C@@H](O)[C@@H]3O)c(C)c2Cl)c1 [Example 308]	35800 nM	8.85 µM	> 33 µM
C#CCCCn1c(COc2cc(Cl)cc(C(=O)O[C@H]3[C@@H](OC)O[C@H](CO)[C@@H](O)[C@@H]3O)c2)nc2ccccc21 [Example 314]	9700 nM	2.81 µM	28.5 µM
COC(=O)/C=C/c1ccc(COc2c(Cl)cc(C(=O)N[C@H]3[C@@H](OC)O[C@H](CO)[C@@H](O)[C@@H]3O)c(C)c2Cl)cc1 [Example 315]	12900 nM	2.3 µM	> 33 µM
CO[C@H]1O[C@H](CO)[C@@H](O)[C@H](O)[C@H]1NC(=O)c1cc(Cl)c(OCc2ccc(OCC(=O)OC(C)(C)C)cc2)c(Cl)c1C [Example 316]	1600 nM	1.52 µM	> 33 µM
CO[C@H]1O[C@H](CO)[C@@H](O)[C@H](O)[C@H]1OC(=O)c1cc(Cl)c(OCc2ccc(OCC(=O)OC(C)(C)C)cc2)c(Cl)c1C [Example 319]	7400 nM	3 µM	8.03 µM
COC(=O)[C@H](CCCCNC(=O)CCCCCn1c(COc2c(Cl)cc(C(=O)N[C@H]3[C@@H](OC)O[C@H](CO)[C@@H](O)[C@@H]3O)c(C)c2Cl)nc2ccccc21)NC(=O)OC(C)(C)C [Example 322]	20000 nM	1.42 µM	7.06 µM
CO[C@H]1O[C@H](CO)[C@@H](O)[C@H](O)[C@H]1NC(=O)c1cc(Cl)c(OCc2noc3ccc(C)cc23)c(Cl)c1C [Example 324]	2100 nM	0.94 µM	7.98 µM
C#CCCCn1c(COc2cc(C(=O)O[C@H]3[C@@H](OC)O[C@H](CO)[C@@H](O)[C@@H]3O)cc3c2cnn3C)nc2ccccc21 [Example 327]	9400 nM	4.99 µM	> 33 µM
C#CCCC(=O)Nc1cc(COc2c(Cl)cc(C(=O)O[C@H]3[C@@H](OC)O[C@H](CO)[C@@H](O)[C@@H]3O)c(C)c2Cl)ccc1OC [Example 331]	1100 nM	0.36 µM	1.79 µM
CO[C@H]1O[C@H](CO)[C@@H](O)[C@H](O)[C@H]1NC(=O)c1cc(Cl)c(OCc2nc3ccccc3n2CCCCCCNC(=O)[C@H](CC(C)C)N(C)C(=O)OC(C)(C)C)c(Cl)c1C [Example 341]	1600 nM	0.72 µM	2.61 µM
COC(=O)[C@H](CCC(=O)NCCCCCCn1c(COc2c(Cl)cc(C(=O)N[C@H]3[C@@H](OC)O[C@H](CO)[C@@H](O)[C@@H]3O)c(C)c2Cl)nc2ccccc21)NC(=O)OC(C)(C)C [Example 342]	34200 nM	2.18 µM	> 100 µM
CO[C@H]1O[C@H](CO)[C@@H](O)[C@H](O)[C@H]1OC(=O)c1cc(Cl)c(OCc2cccc(CNC(=O)CCC(=O)OC(C)(C)C)c2)c(Cl)c1C [Example 344]	1000 nM	1.11 µM	8.59 µM
CO[C@H]1O[C@H](CO)[C@@H](O)[C@H](O)[C@H]1OC(=O)c1cc(Cl)c(OCc2cccc(NCCCC(=O)OC(C)(C)C)c2)c(Cl)c1C [Example 345]	12400 nM	2.41 µM	6.59 µM
CO[C@H]1O[C@H](CO)[C@@H](O)[C@H](O)[C@H]1OC(=O)c1cc(Cl)c(OCc2cccc(NC(=O)CCC(=O)OC(C)(C)C)c2)c(Cl)c1C [Example 347]	2800 nM	0.86 µM	5.28 µM
CO[C@H]1O[C@H](CO)[C@@H](O)[C@H](O)[C@H]1OC(=O)c1cc(Cl)c(OCc2cccc(CNC(=O)CCCC(=O)OC(C)(C)C)c2)c(Cl)c1C [Example 349]	2500 nM	1.46 µM	7.76 µM
CO[C@H]1O[C@H](CO)[C@@H](O)[C@H](O)[C@H]1OC(=O)c1cc(Cl)c(OCc2cccc(NC(=O)CCCC(=O)OC(C)(C)C)c2)c(Cl)c1C [Example 351]	800 nM	0.55 µM	1.97 µM
COC(=O)CCc1ccc(COc2cc(OC)c(C(=O)N[C@H]3[C@@H](OC)O[C@H](CO)[C@@H](O)[C@@H]3O)cc2Cl)cc1 [Example 356]	2700 nM	3.68 µM	12.1 µM
COc1cc(OCc2cccc(CNC(=O)OC(C)(C)C)c2)c(Cl)cc1C(=O)O[C@H]1[C@@H](OC)O[C@H](CO)[C@@H](O)[C@@H]1O [Example 361]	800 nM	1.93 µM	8.11 µM
COc1cc(OCc2cccc(NC(=O)CCCC(=O)OC(C)(C)C)c2)c(Cl)cc1C(=O)O[C@@H]1[C@@H](O)[C@@H](OC)O[C@H](CO)[C@H]1O [Example 364]	4400 nM	3.88 µM	12.3 µM
C#CCCCCCCCn1c(COc2c(Cl)cc(C(=O)O[C@H]3[C@@H](OC)O[C@H](CO)[C@@H](O)[C@@H]3O)c(C)c2Cl)nc2ccccc21 [Example 371]	400 nM	0.86 µM	1.44 µM
COc1cc(OCc2cccc(CNC(=O)CCC(=O)OC(C)(C)C)c2)c(Cl)cc1C(=O)O[C@H]1[C@@H](OC)O[C@H](CO)[C@@H](O)[C@@H]1O [Example 372]	2400 nM	2.89 µM	15 µM

More lines, now with the values ahead:

IC50 [1]	IC50 [2, 3]	IC50 [2, 4]	Compound
100 nM	0.12 µM	0.29 µM	C#CCCCn1c(COc2c(Cl)cc(C(=O)O[C@H]3[C@@H](OC)O[C@H](CO)[C@@H](O)[C@@H]3O)c(C)c2Cl)nc2ccc(OC)cc21 [Example 291]
100 nM	0.13 µM	1.12 µM	C#CCCCn1c(COc2c(Cl)cc(C(=O)O[C@H]3[C@@H](OC)O[C@H](CO)[C@@H](O)[C@@H]3O)c(C)c2Cl)nc2cc(OC)ccc21 [Example 292]
100 nM	0.16 µM	1.28 µM	C#CCCCn1c(COc2cc(OC)c(C(=O)O[C@H]3[C@@H](OC)O[C@H](CO)[C@@H](O)[C@@H]3O)cc2Cl)nc2ccccc21 [Example 294]
300 nM	0.17 µM	0.71 µM	CCOC(=O)CCCCCn1cc(CCCn2c(COc3c(Cl)cc(C(=O)O[C@H]4[C@@H](OC)O[C@H](CO)[C@@H](O)[C@@H]4O)c(C)c3Cl)nc3ccccc32)nn1 [Example 309]
400 nM	0.17 µM	0.89 µM	CCOC(=O)CCCn1cc(CCCn2c(COc3c(Cl)cc(C(=O)O[C@H]4[C@@H](OC)O[C@H](CO)[C@@H](O)[C@@H]4O)c(C)c3Cl)nc3ccccc32)nn1 [Example 310]
400 nM	0.12 µM	0.7 µM	CO[C@H]1O[C@H](CO)[C@@H](O)[C@H](O)[C@H]1OC(=O)c1cc(Cl)c(OCc2nc3ccccc3n2CCCc2cn(CCOCCOCC(=O)OC(C)(C)C)nn2)c(Cl)c1C [Example 311]
200 nM	0.56 µM	1.2 µM	C#CCCCCCCn1c(COc2c(Cl)cc(C(=O)O[C@H]3[C@@H](OC)O[C@H](CO)[C@@H](O)[C@@H]3O)c(C)c2Cl)nc2ccccc21 [Example 321]
300 nM	1.2 µM	7.19 µM	CO[C@H]1O[C@H](CO)[C@@H](O)[C@H](O)[C@H]1OC(=O)c1cc(Cl)c(OCc2noc3ccc(C)cc23)c(Cl)c1C [Example 325]
10 nM	0.2 µM	0.94 µM	C#CCCCn1c(COc2c(Cl)cc(C(=O)O[C@H]3[C@@H](OC)O[C@H](CO)[C@@H](O)[C@@H]3O)c(C)c2Cl)nc2ccc(C)cc21 [Example 329]
300 nM	0.92 µM	3.52 µM	C#CCCCn1c(COc2c(Cl)cc(C(=O)O[C@H]3[C@@H](OC)O[C@H](CO)[C@@H](O)[C@@H]3O)c(C)c2Cl)nc2cc(C)ccc21 [Example 330]
40 nM	0.26 µM	1.05 µM	COC(=O)/C=C/c1ccc(COc2cc(OC)c(C(=O)O[C@H]3[C@@H](OC)O[C@H](CO)[C@@H](O)[C@@H]3O)cc2Cl)cc1 [Example 352]
100 nM	1.5 µM	6.07 µM	COc1cc(OCc2cn3c(C)cccc3n2)c(Cl)cc1C(=O)O[C@H]1[C@@H](OC)O[C@H](CO)[C@@H](O)[C@@H]1O [Example 353]
